Data published in US20210023223A1, “HYDROCARBON / LIPID - CAROTENOID COMPLEXES” (IP SCIENCE LIMITED, priority 2018, published 2021).

Assays:
[1] = Size of pork fat globules, microscopy; type: physicochemical; conditions: maximum doses
Experimental: (§1) For measurement of lipid droplets and fat globules and quantification of their size binocular microscope Olympus BX41 was used with Cell^B software for morphometric analysis. All parameters were collected from 10 randomly selected microscopic fields at ×1000).
When carotenoids were added to animal fat, with a relatively high percentage of saturated fatty acid, a similar trend in increased fat globules was observed, although to a lesser degree. The maximum doses of lycopene or astaxanthin caused a similar increase in the pork fat globules diameter, only 50%, FIG. 2 and table 3.

[2] = Size of Sunflower Oil lipid droplets, microscopy; type: physicochemical; parameters: Size of Sunflower Oil lipid droplets, Mean / Sunflower Oil lipid droplets, Droplet square: unit not given here
Excerpt: as §1

[3] = Size of Canola oil lipid droplets, microscopy; type: physicochemical
Excerpt: as §1
(§2) The effect of adding lycopene into another polyunsaturated oil, in this case cod liver oil, was a dose-dependent increase in the size of its lipid structures. For Olive and Sunflower oils this increase in diameter caused by lycopene could reach 20 fold, for Canola and Cod Liver oil it was 50 or 100 fold.

[4] = Size of Cod Liver oil lipid structures, microscopy; type: physicochemical
Excerpt: as §1, §2

[5] = Hydrophobicity as oxygen gas solubility (micellar red-ox catalymetry); type: physicochemical
Excerpt: It is known that gas molecules are more soluble in hydrophobic domains than in polar structures or liquids. For example, solubility of molecular oxygen could be 4 to 10 fold greater in intact lipid membrane than in a surrounding aqueous solution [1-5]. In other words one can use the measure of soluble gas in lipids, or other […], as a measure of its hydrophobicity. This approach seem logical, however to the best of our knowledge has never been published.
Here we describe a new method to measure hydrophobicity of lipids as a function of concentration of soluble molecular oxygen within their matrix.
There are a number of ways to measure molecular oxygen in solid, crystal and indeed lipid structures. Almost all of them are physical methods such as ESR [1] or polarography. However, we decided to use much simpler and faster micellar acceleration red-ox catalymetry. This test can measure O2 in a dozen parallel samples not only lipids in model systems but also in circulating lipoproteins from human blood.
The physical expansion of the size of the oil droplets observed in the above experiments was estimated by independent measurements on changes in their hydrophobicity. […] With this approach it was possible to detect these changes when ratio lycopene to fatty acids reached 1 to 10,000 and then it was a dose dependent effect. This rise reached its plateau level at the ratio 1:4,000.

[6] = Spreadability of oil drops on the surface of water; type: physicochemical
Experimental: 1. A petri dish of 13.5 cm diameter was filled to the brim with unheated water.
2. 0.3 ml of Olive or Sunflower oil was dropped onto the surface from a standardised height (30 cm) using a 1 ml pipette.
3. The resultant droplets were photographed and measured 30 sec after impact.
4. For increased reliability, the procedure was repeated 5 times.
5. Steps 1-4 were then repeated for Olive and Sunflower oils with or without carotenoids in different concentrations.

[7] = Defrosting time of frozen oil; type: physicochemical
Experimental: To determined defrosting time, frozen oil aliquots of 200 μI were incubated at ambient temperature of 20±2 C° until they were completely melted. Period of time, which was required for the tested sample to be melted, was measured with a laboratory timer (QUANTUM).

[8] = Heating olive oil-in-water emulsions; type: physicochemical
[9] = test system: moderately obese volunteers; assay: Serum lipids after 20 mg lycopene for 1 month; type: in vivo, human
Experimental: (§3) Study Design. The total number of volunteers recruited to take part in the study was 18 (9 male and 9 female subjects) Caucasians 40-67 years old.
(§4) Products Formulated with Lycopene was developed and made by Lycotec Ltd. (Cambridge, United Kingdom). The daily dose was 1 capsule of 20 mg of lycopene, and it was taken with the main meal of the day. The period of administration was 1 month.
Blood was collected by phlebotomy in the morning, in the hospital, from the arm veins of patients following night fast. The serum was separated from the rest of the clotted mass by centrifugation; aliquots were then stored in code-labelled tubes for blinded analysis and stored at −80° C. until use.

[10] = test system: moderately obese volunteers; assay: LDL-Px, serum LDL peroxidase proteins; type: in vivo, human
Experimental: as §3, §4
LDL-Px and Lipoprotein O2. Activity of serum LDL peroxidase proteins, which include IgG with superoxide dismutase activity, was measured as described previously. Plasma oxygen, which carried by blood lipids/lipoproteins was measured by catalymetry.

[11] = Acid induced degradation at pH 2.5, gas chromatography; type: physicochemical; conditions: lycopene 1 mg or 3 mg per 1 gram of DHA; 37° C.
[12] = lycopene dose 0.1 per 30 g of the oil
[13] = lycopene dose 0.5 per 30 g of the oil
[14] = lycopene dose 1.0 per 30 g of the oil
[15] = lycopene dose 2.0 per 30 g of the oil
[16] = lycopene dose 3.5 per 30 g of the oil
[17] = lycopene dose 7.0 per 30 g of the oil
[18] = lycopene dose 10.0 per 30 g of the oil
[19] = after 20 mg lycopene daily for one month

Increase in the pork fat globules diameter [1]: 50% | Size of Sunflower Oil lipid droplets, Mean [2, 12]: 65.16 | Sunflower Oil lipid droplets, Droplet square [2, 12]: 0.36 | Size of Sunflower Oil lipid droplets, Mean [2, 13]: 144.82 | Sunflower Oil lipid droplets, Droplet square [2, 13]: 1.20 | Size of Sunflower Oil lipid droplets, Mean [2, 14]: 79.73 | Sunflower Oil lipid droplets, Droplet square [2, 14]: 0.72 | Size of Sunflower Oil lipid droplets, Mean [2, 15]: 149.25 | Sunflower Oil lipid droplets, Droplet square [2, 15]: 1.32 | Size of Sunflower Oil lipid droplets, Mean [2, 16]: 286.00 | Sunflower Oil lipid droplets, Droplet square [2, 16]: 4.03 | Size of Sunflower Oil lipid droplets, Mean [2, 17]: 202.78 | Sunflower Oil lipid droplets, Droplet square [2, 17]: 3.44 | Size of Sunflower Oil lipid droplets, Mean [2, 18]: 434.81 | Sunflower Oil lipid droplets, Droplet square [2, 18]: 20.71 | Increase in lipid droplet diameter, could reach ([2]; sunflower oil): 20 fold | Increase in lipid droplet diameter [3]: 50 fold | Increase in lipid droplet diameter [4]: 100 fold | Diameter of spread lipid drops relative to intact oil ([6]; 1 molecule of lycopene within about 120,000 molecules of oil lipids): 6-8 fold | Increase of spreadability on the surface of the water ([6]; olive oil): 11 fold | Reduction of thawing time of Canola/Rapeseed oil ([7]; 0.3 mg per 1 ml of the oil): over 2 fold | Reduction of thawing time of Olive oil ([7]; 0.3 mg per 1 ml of the oil): 10 fold | Thawing time of Canola/Rapeseed oil ([7]; 0.3 mg per 1 ml of the oil, control 85 seconds): 40 s | Thawing time of Cod Liver oil ([7]; 0.3 mg per 1 ml of the oil, control 120): 55 s | Thawing time of frozen Olive oil ([7]; 0.3 mg per 1 ml of the oil, controls 60 (lycopene) and 48 seconds (astaxanthin)): 6 s | Reduction of thawing time of Sunflower oil ([7]; 0.3 mg per 1 ml the oil): 17 fold | Rate of heating of olive oil emulsion in water in the first 3 minutes ([8]; 50%:50%, 1 molecule lycopene to 67,000 or astaxanthin to 71,000 fatty acids, control 10° C.): 18 °C | Maximum temperature the emulsion could reach ([8]; water to olive oil 75%:25%, control 62° C.): 100 °C | Degradation of DHA at pH2.5 [11]: completely prevented
Compound: CC(C)=CCC/C(C)=C/C=C/C(C)=C/C=C/C(C)=C/C=C/C=C(C)/C=C/C=C(C)/C=C/C=C(\C)CCC=C(C)C [Lycopene]
Hydrophobicity in terms of gas solubility ([5]; ratio of molecules of lycopene per molecules of fatty acids 1:3,000): 248-287 10^−6 M O2 per mg of sunflower oil | Hydrophobicity in terms of gas solubility ([5]; ratio of molecules of lycopene per molecules of fatty acids 1:4,000): 275-321 10^−6 M O2 per mg of sunflower oil | Hydrophobicity in terms of gas solubility ([5]; ratio of molecules of lycopene per molecules of fatty acids 1:5,000): 197-198 10^−6 M O2 per mg of sunflower oil | Hydrophobicity in terms of gas solubility ([5]; ratio of molecules of lycopene per molecules of fatty acids 1:10,000): 180-182 10^−6 M O2 per mg of sunflower oil | Hydrophobicity in terms of gas solubility ([5]; ratio of molecules of lycopene per molecules of fatty acids 1:20,000): 143-155 10^−6 M O2 per mg of sunflower oil | HDL [9, 19]: 49.9 ± 3.0^ mg/dL | LDL [9, 19]: 121 ± 10.5 mg/dL | Triglycerides [9, 19]: 128 ± 9.7 mg/dL | HDL ([9]; before, n = 18): 49.2 ± 2.9^ mg/dL | LDL ([9]; before, n = 18): 134 ± 11.3 mg/dL | Triglycerides ([9]; before, n = 18): 136 ± 10.1 mg/dL | LDL-Px [10, 19]: 286 ± 29^ ELISA × 10^3 | LDL-Px ([10]; before, n = 18): 545 ± 49^ ELISA × 10^3
